{
  "source": "paper PMC6485937",
  "about": "(Archives of toxicology, 2016)",
  "key": {"[1]": {"test_system": "D. japonica cholinesterase (DjChE)", "assay": "Substrate hydrolysis by DjChE in homogenates", "format": "biochemical, Dugesia japonica", "conditions": "mean ± SE of 6 independent experiments"}, "[2]": {"test_system": "D. japonica cholinesterase (DjChE)", "assay": "Kinetics of irreversible", "format": "biochemical, Dugesia japonica", "conditions": "for kr (bimolecular rate constant), rates of inhibition by carbamylating agents / kr (bimolecular rate constant), rates of inhibition by OP oxons: 1 mM ATCh, room temperature, mean± 95% confidence intervals; for Inhibition of ATCh or BTCh hydrolysis: 1 mM ATCh or BTCh"}, "[3]": {"test_system": "diethylphosphoryl DjChE (OP inhibited D. japonica cholinesterase)", "assay": "Reactivation of OP inhibited DjChE by oximes or NaF", "format": "biochemical, Dugesia japonica"}, "[4]": {"conditions": "in mammals; ref Radić et al. 2012; cited from earlier work"}, "[5]": {"test_system": "human AChE", "conditions": "human AChE in vitro; ref Radić et al. 2013; cited from earlier work"}},
  "data": [
    {"molecule": "CC(=O)SCC[N+](C)(C)C", "note": "[ATCh, acetylthiocholine]", "values": [
      {"measurement": "Km", "setting": "[1]", "value": "123 ± 6", "unit": "µM"}
    ]},
    {"molecule": "CCCC(=O)SCC[N+](C)(C)C", "note": "[BTCh, butyrylthiocholine]", "values": [
      {"measurement": "Km", "setting": "[1]", "value": "59 ± 4", "unit": "µM"}
    ]},
    {"molecule": "CNC(=O)Oc1cccc2ccccc12", "note": "[Carbaryl, carbaryl]", "values": [
      {"measurement": "kr (bimolecular rate constant), rates of inhibition by carbamylating agents", "setting": "[2]", "value": "0.00064± 0.00008 × 10^5 M^−1 min^−1"}
    ]},
    {"molecule": "CCOP(=O)(OCC)Oc1cc(C)nc(C(C)C)n1", "note": "[Diazinon oxon, diazinon oxon]", "values": [
      {"measurement": "kr (bimolecular rate constant), rates of inhibition by OP oxons", "setting": "[2]", "value": "22±2 × 10^5 M^−1min^−1"}
    ]},
    {"molecule": "COP(=O)(OC)OC=C(Cl)Cl", "note": "[Dichlorvos, dichlorvos]", "values": [
      {"measurement": "kr (bimolecular rate constant), rates of inhibition by OP oxons", "setting": "[2]", "value": "9.1± 0.9 × 10^5 M^−1min^−1"}
    ]},
    {"molecule": "CCOC(=O)CC(SP(=O)(OC)OC)C(=O)OCC", "note": "(stereo not shown) [Malaoxon, malaoxon]", "values": [
      {"measurement": "kr (bimolecular rate constant), rates of inhibition by OP oxons", "setting": "[2]", "value": "0.14± 0.01 × 10^5 M^−1min^−1"}
    ]},
    {"molecule": "[F-].[Na+]", "note": "[NaF, sodium fluoride]", "values": [
      {"measurement": "Reactivation rate of 10 mM NaF relative to 4 mM 2-PAM", "setting": "[3]; 10 mM NaF vs 4 mM 2-PAM", "value": "four times faster"},
      {"measurement": "mean kobs of reactivation", "setting": "[3]; 10 mM NaF, OP inhibited DjChE", "value": 0.023, "unit": "min⁻¹"}
    ]},
    {"molecule": "CN(C)C(=O)Oc1cccc([N+](C)(C)C)c1", "note": "[Neostigmine, neostigmine]", "values": [
      {"measurement": "kr (bimolecular rate constant), rates of inhibition by carbamylating agents", "setting": "[2]", "value": "1.3±0.2 × 10^5 M^−1 min^−1"}
    ]},
    {"molecule": "CCOP(=O)(OCC)Oc1ccc([N+](=O)[O-])cc1", "note": "[Paraoxon, paraoxon]", "values": [
      {"measurement": "kr (bimolecular rate constant), rates of inhibition by OP oxons", "setting": "[2]", "value": "1.7± 0.1 × 10^5 M^−1min^−1"}
    ]},
    {"molecule": "CNC(=O)Oc1ccc2c(c1)[C@]1(C)CCN(C)[C@@H]1N2C", "note": "[Physostigmine, physostigmine]", "values": [
      {"measurement": "kr (bimolecular rate constant), rates of inhibition by carbamylating agents", "setting": "[2]", "value": "0.32± 0.02 × 10^5 M^−1 min^−1"}
    ]},
    {"molecule": "CN(C)C(=O)Oc1ccc[n+](C)c1", "note": "[Pyridostigmine, pyridostigmine]", "values": [
      {"measurement": "kr (bimolecular rate constant), rates of inhibition by carbamylating agents", "setting": "[2]", "value": "0.10± 0.01 × 10^5 M^−1 min^−1"}
    ]},
    {"molecule": "O=C(C=NO)NCCN1CCCCCC1", "note": "[RS194B]", "values": [
      {"measurement": "Crossing of the blood-brain barrier", "setting": "[4]", "value": "crosses the blood-brain barrier"},
      {"measurement": "Rate of reactivation relative to equimolar 2-PAM", "setting": "[5]", "value": 2.5, "unit": "times faster"},
      {"measurement": "Reactivation rate compared with 2-PAM", "setting": "[3]; 4 mM oxime, diazinon oxon inhibited DjChE", "value": "significantly faster than 2-PAM"}
    ]},
    {"molecule": "CC(C)NP(=O)(NC(C)C)OP(=O)(NC(C)C)NC(C)C", "note": "[iso-OMPA, Tetraisopropyl pyrophosphoramide]", "values": [
      {"measurement": "Inhibition of ATCh or BTCh hydrolysis", "setting": "[2]; 5 mM iso-OMPA", "value": "only slow inhibition"},
      {"measurement": "Inhibition of ATCh or BTCh hydrolysis", "setting": "[2]; incubation with up to 1 mM iso-OMPA", "value": "unable to significantly inhibit"}
    ]},
    {"molecule": "chlorpyrifos oxon", "values": [
      {"measurement": "kr (bimolecular rate constant), rates of inhibition by OP oxons", "setting": "[2]", "value": "3.0± 0.3 × 10^5 M^−1min^−1"}
    ]},
    {"molecule": "pyridine-2-aldoxime [2-PAM]", "values": [
      {"measurement": "mean kobs of reactivation", "setting": "[3]; 4 mM 2-PAM, diazinon oxon inhibited DjChE", "value": 0.0058, "unit": "min⁻¹"}
    ]}
  ]
}
